Results on 26 molecules are retold here after publication PMC5641445 (Journal of medicinal chemistry, 2017).

The target of test [1] is mouse PKA catalytic subunits (Mus musculus, UniProt P05132). Briefly: PKA inhibition, ADP-Glo Kinase Assay. (In ADP-Glo the light output rises with the ADP produced.)
For another test, the target named is T1, bovine GRK2 (S670A) (Bos taurus, UniProt P21146, S670A).
T1 sequence (P21146 1-689 S670A): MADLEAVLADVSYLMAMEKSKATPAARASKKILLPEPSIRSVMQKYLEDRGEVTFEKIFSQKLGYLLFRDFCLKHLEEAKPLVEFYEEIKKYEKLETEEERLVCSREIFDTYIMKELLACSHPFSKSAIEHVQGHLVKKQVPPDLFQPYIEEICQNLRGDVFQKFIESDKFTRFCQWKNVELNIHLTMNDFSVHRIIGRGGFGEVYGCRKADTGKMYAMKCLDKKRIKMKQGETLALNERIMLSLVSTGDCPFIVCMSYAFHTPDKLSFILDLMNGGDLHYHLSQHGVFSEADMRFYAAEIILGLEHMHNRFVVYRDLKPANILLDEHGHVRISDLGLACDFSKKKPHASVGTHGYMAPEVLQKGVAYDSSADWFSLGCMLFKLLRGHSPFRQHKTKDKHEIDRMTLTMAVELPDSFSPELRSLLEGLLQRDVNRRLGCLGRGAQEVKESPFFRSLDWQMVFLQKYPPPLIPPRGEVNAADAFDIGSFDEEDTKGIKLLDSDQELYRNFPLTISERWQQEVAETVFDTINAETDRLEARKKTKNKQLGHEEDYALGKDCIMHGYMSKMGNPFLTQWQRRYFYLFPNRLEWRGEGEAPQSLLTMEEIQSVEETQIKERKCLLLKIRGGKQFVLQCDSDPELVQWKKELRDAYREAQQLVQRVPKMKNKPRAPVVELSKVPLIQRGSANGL
Briefly: GRK2 kinase inhibition.

Another test addresses bovine GRK5 (Bos taurus, UniProt P43249). The experiment in a line: GRK5 kinase inhibition.

In general, IC50 refers to the midpoint of a concentration-inhibition curve. High values mean weaker potency in that assay, low ones greater potency in that assay.

The structures appear in SMILES notation. Structures can show the parent of a compound that is named as a salt.

Chain of bovine GRK5 (P43249 whole entry): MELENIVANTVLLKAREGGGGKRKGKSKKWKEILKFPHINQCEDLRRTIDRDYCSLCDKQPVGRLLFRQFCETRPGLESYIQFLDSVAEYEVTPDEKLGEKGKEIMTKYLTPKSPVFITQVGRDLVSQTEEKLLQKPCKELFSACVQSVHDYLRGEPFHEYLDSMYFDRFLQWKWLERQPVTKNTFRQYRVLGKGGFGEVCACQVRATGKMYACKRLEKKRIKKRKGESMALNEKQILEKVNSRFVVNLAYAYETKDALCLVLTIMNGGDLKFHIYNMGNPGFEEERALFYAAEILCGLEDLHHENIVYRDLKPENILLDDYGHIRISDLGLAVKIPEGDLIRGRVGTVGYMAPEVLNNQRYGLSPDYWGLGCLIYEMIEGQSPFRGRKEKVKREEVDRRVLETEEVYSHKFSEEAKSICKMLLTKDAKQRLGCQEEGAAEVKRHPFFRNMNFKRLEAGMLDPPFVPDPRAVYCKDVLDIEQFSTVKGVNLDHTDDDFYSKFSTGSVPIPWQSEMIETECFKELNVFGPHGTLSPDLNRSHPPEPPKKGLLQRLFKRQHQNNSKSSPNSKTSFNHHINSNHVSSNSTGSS

For `CNC(=O)c1cc([C@@H]2CCNC[C@H]2COc2ccc3c(c2)OCO3)ccc1F` [14aa, 5-((3S,4R)-3-((benzo[d][1,3]dioxol-5-yloxy)methyl)piperidin-4-yl)-2-fluoro-N-methylbenzamide], the IC50 in test [1] was over 100 µM.

As to `O=C(NCc1ccccc1)c1cc([C@@H]2CCNC[C@H]2COc2ccc3c(c2)OCO3)ccc1F` [14ab, 5-((3S,4R)-3-((benzo[d][1,3]dioxol-5-yloxy)methyl)piperidin-4-yl)-N-benzyl-2-fluorobenzamide], the half-maximal inhibitory concentration (IC50) in test [1] was over 100 µM.

In test [1], `O=C(NCCc1ccccc1)c1cc([C@@H]2CCNC[C@H]2COc2ccc3c(c2)OCO3)ccc1F` [14ac, 5-((3S,4R)-3-((benzo[d][1,3]dioxol-5-yloxy)methyl)piperidin-4-yl)-2-fluoro-N-phenethylbenzamide] registered an IC50 of over 100 µM.

Take `O=C(NCc1c(F)cccc1F)c1cc([C@@H]2CCNC[C@H]2COc2ccc3c(c2)OCO3)ccc1F` [14ad, 5-((3S,4R)-3-((benzo[d][1,3]dioxol-5-yloxy)methyl)piperidin-4-yl)-N-(2,6-difluorobenzyl)-2-fluorobenzamide hydrochloride]: the IC50 in test [1] is over 100 µM.

Consider `O=C(NCCc1c(F)cccc1F)c1cc([C@@H]2CCNC[C@H]2COc2ccc3c(c2)OCO3)ccc1F` [14ae, 5-((3S,4R)-3-((benzo[d][1,3]dioxol-5-yloxy)methyl)piperidin-4-yl)-N-(2,6-difluorophenethyl)-2-fluorobenzamide], for which the IC50 in test [1] was over 100 µM.

Turning to `O=C(NCc1ccccc1C(F)(F)F)c1cc([C@@H]2CCNC[C@H]2COc2ccc3c(c2)OCO3)ccc1F` [14af, 5-((3S,4R)-3-((benzo[d][1,3]dioxol-5-yloxy)methyl)piperidin-4-yl)-2-fluoro-N-(2-(trifluoromethyl)benzyl)benzamide], in test [1], the IC50 is over 100 µM.

Molecule `Cc1cccc(C)c1CNC(=O)c1cc([C@@H]2CCNC[C@H]2COc2ccc3c(c2)OCO3)ccc1F` [14ag, 5-((3S,4R)-3-((benzo[d][1,3]dioxol-5-yloxy)methyl)piperidin-4-yl)-N-(2,6-dimethylbenzyl)-2-fluorobenzamide hydrochloride] displayed an IC50 in test [1] of over 100 µM.

`O=C(NCc1c(Cl)cccc1Cl)c1cc([C@@H]2CCNC[C@H]2COc2ccc3c(c2)OCO3)ccc1F` [14ah, 5-((3S,4R)-3-((benzo[d][1,3]dioxol-5-yloxy)methyl)piperidin-4-yl)-N-(2,6-dichlorobenzyl)-2-fluorobenzamide]: in test [1], the IC50 was over 100 µM.

In test [1], `COc1cccc(OC)c1CNC(=O)c1cc([C@@H]2CCNC[C@H]2COc2ccc3c(c2)OCO3)ccc1F` [14ai, 5-((3S,4R)-3-((benzo[d][1,3]dioxol-5-yloxy)methyl)piperidin-4-yl)-N-(2,6-dimethoxybenzyl)-2-fluorobenzamide hydrochloride] returned an IC50 of over 100 µM.

Take `COc1ccccc1CNC(=O)c1cc([C@@H]2CCNC[C@H]2COc2ccc3c(c2)OCO3)ccc1F` [14aj, 5-((3S,4R)-3-((benzo[d][1,3]dioxol-5-yloxy)methyl)piperidin-4-yl)-2-fluoro-N-(2-methoxybenzyl)benzamide hydrochloride]: the IC50 in test [1] is over 100 µM.

Regarding `O=C(NCc1cccnc1)c1cc([C@@H]2CCNC[C@H]2COc2ccc3c(c2)OCO3)ccc1F` [14al, 5-((3S,4R)-3-((benzo[d][1,3]dioxol-5-yloxy)methyl)piperidin-4-yl)-2-fluoro-N-(pyridin-3-ylmethyl)benzamide], the half-inhibitory concentration (IC50) in test [1] was over 100 µM.

Consider `O=C(NCc1ccncc1)c1cc([C@@H]2CCNC[C@H]2COc2ccc3c(c2)OCO3)ccc1F` [14am, 5-((3S,4R)-3-((benzo[d][1,3]dioxol-5-yloxy)methyl)piperidin-4-yl)-2-fluoro-N-(pyridin-4-ylmethyl)benzamide], for which the IC50 in test [1] was over 100 µM.

`O=C(NCCc1ccccn1)c1cc([C@@H]2CCNC[C@H]2COc2ccc3c(c2)OCO3)ccc1F` [14an, 5-((3S,4R)-3-((benzo[d][1,3]dioxol-5-yloxy)methyl)piperidin-4-yl)-2-fluoro-N-(2-(pyridin-2-yl)ethyl)benzamide] gave an IC50 in test [1] of over 100 µM.

The molecule `O=C(NCCc1cccnc1)c1cc([C@@H]2CCNC[C@H]2COc2ccc3c(c2)OCO3)ccc1F` [14ao, 5-((3S,4R)-3-((benzo[d][1,3]dioxol-5-yloxy)methyl)piperidin-4-yl)-2-fluoro-N-(2-(pyridin-3-yl)ethyl)benzamide] had an IC50 in test [1] of over 100 µM.

As for `O=C(NCCc1ccncc1)c1cc([C@@H]2CCNC[C@H]2COc2ccc3c(c2)OCO3)ccc1F` [14ap, 5-((3S,4R)-3-((benzo[d][1,3]dioxol-5-yloxy)methyl)piperidin-4-yl)-2-fluoro-N-(2-(pyridin-4-yl)ethyl)benzamide], the IC50 in test [1] is over 100 µM.

As to `O=C(NCc1ncc[nH]1)c1cc([C@@H]2CCNC[C@H]2COc2ccc3c(c2)OCO3)ccc1F` [14aq, N-((1H-imidazol-2-yl)methyl)-5-((3S,4R)-3-((benzo[d][1,3]dioxol-5-yloxy)methyl)piperidin-4-yl)-2-fluorobenzamide], the IC50 in test [1] was over 100 µM.

Take `O=C(NCCc1c[nH]cn1)c1cc([C@@H]2CCNC[C@H]2COc2ccc3c(c2)OCO3)ccc1F` [14ar, N-(2-(1H-imidazol-4-yl)ethyl)-5-((3S,4R)-3-((benzo[d][1,3]dioxol-5-yloxy)methyl)piperidin-4-yl)-2-fluorobenzamide]: the IC50 in test [1] is over 100 µM.

In test [1], `O=C(NCCc1cc[nH]n1)c1cc([C@@H]2CCNC[C@H]2COc2ccc3c(c2)OCO3)ccc1F` [14at, N-(2-(1H-pyrazol-3-yl)ethyl)-5-((3S,4R)-3-((benzo[d][1,3]dioxol-5-yloxy)methyl)piperidin-4-yl)-2-fluorobenzamide] registered an IC50 of over 100 µM. Also, the “decrease in GRK2 potency relative to 14as” value on bovine GRK2 (S670A) is listed as 26 fold.

Regarding `Cc1cc(CNC(=O)c2cc([C@@H]3CCNC[C@H]3COc3ccc4c(c3)OCO4)ccc2F)n[nH]1` [14au, 5-((3S,4R)-3-((benzo[d][1,3]dioxol-5-yloxy)methyl)piperidin-4-yl)-2-fluoro-N-((5-methyl-1H-pyrazol-3-yl)methyl)benzamide], the IC50 in test [1] was over 100 µM. Moreover, the “selectivity for GRK2 over GRK5” value at bovine GRK5 is recorded as over 100 fold.

`Cn1ccc(CNC(=O)c2cc([C@@H]3CCNC[C@H]3COc3ccc4c(c3)OCO4)ccc2F)n1` [14av, 5-((3S,4R)-3-((benzo[d][1,3]dioxol-5-yloxy)methyl)piperidin-4-yl)-2-fluoro-N-((1-methyl-1H-pyrazol-3-yl)methyl)benzamide] had an IC50 in test [1] of over 100 µM. Moreover, at bovine GRK2 (S670A), the “decrease in GRK2 potency relative to 14as” value is reported as 40 fold.

Turning to `Cn1nccc1CNC(=O)c1cc([C@@H]2CCNC[C@H]2COc2ccc3c(c2)OCO3)ccc1F` [14aw, 5-((3S,4R)-3-((benzo[d][1,3]dioxol-5-yloxy)methyl)piperidin-4-yl)-2-fluoro-N-((1-methyl-1H-pyrazol-5-yl)methyl)benzamide], the IC50 in test [1] is over 100 µM. In addition, the “decrease in GRK2 potency relative to 14as” value at bovine GRK2 (S670A) amounted to 70 fold.

The molecule `O=C(NCc1cn[nH]c1)c1cc([C@@H]2CCNC[C@H]2COc2ccc3c(c2)OCO3)ccc1F` [14ax, N-((1H-pyrazol-4-yl)methyl)-5-((3S,4R)-3-((benzo[d][1,3]dioxol-5-yloxy)methyl)piperidin-4-yl)-2-fluorobenzamide] had an IC50 in test [1] of over 100 µM. Moreover, at bovine GRK2 (S670A), the “decrease in GRK2 potency relative to 14as” value was determined as 10 fold.

For `O=C(NCCc1cn[nH]c1)c1cc([C@@H]2CCNC[C@H]2COc2ccc3c(c2)OCO3)ccc1F` [14ay, N-(2-(1H-pyrazol-4-yl)ethyl)-5-((3S,4R)-3-((benzo[d][1,3]dioxol-5-yloxy)methyl)piperidin-4-yl)-2-fluorobenzamide hydrochloride], the IC50 in test [1] is over 100 µM.

The molecule `O=C(Cc1cc([C@@H]2CCNC[C@H]2COc2ccc3c(c2)OCO3)ccc1F)NCCc1ccccn1` [14bc, 2-(5-((3S,4R)-3-((benzo[d][1,3]dioxol-5-yloxy)methyl)piperidin-4-yl)-2-fluorophenyl)-N-(2-(pyridin-2-yl)ethyl)acetamide hydrochloride] came in with an IC50 in test [1] of over 100 µM.

Turning to `O=C(Cc1cc([C@@H]2CCNC[C@H]2COc2ccc3c(c2)OCO3)ccc1F)NCCc1cn[nH]c1` [14bd, N-(2-(1H-pyrazol-4-yl)ethyl)-2-(5-((3S,4R)-3-((benzo[d][1,3]dioxol-5-yloxy)methyl)piperidin-4-yl)-2-fluorophenyl)acetamide], the IC50 in test [1] is over 100 µM. Besides, at bovine GRK2 (S670A), the “increase in GRK2 potency relative to paroxetine” value stood at 2 fold.

Molecule `Fc1ccc([C@@H]2CCNC[C@H]2COc2ccc3c(c2)OCO3)cc1` [Paroxetine, paroxetine, reference compound] registered an IC50 in test [1] of over 100 µM.
